Results on 5 compounds are retold here after ChEMBL document CHEMBL1201862, “PubChem BioAssay data set” (2004).

Activity calls are given as the source filed them.

In assay [1] the test system is Streptococcus. As to the kind of experiment: Group A Streptococcus viability loss, dose response, counter-screen for streptokinase expression inhibitor project, luminescence, BacTiterGlo (AID 1915).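 Also: potency for reduction of bacterial viability or growth.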 The class given is functional, organism-based. The conditions noted are these: read-out: EC50. A general note: A counterscreen serves to expose hits that act by an unwanted route or on another target.

For assay [2], the target named is T1, Apoptotic protease-activating factor 1 (Homo sapiens, UniProt O14727).
T1 sequence (O14727 whole entry): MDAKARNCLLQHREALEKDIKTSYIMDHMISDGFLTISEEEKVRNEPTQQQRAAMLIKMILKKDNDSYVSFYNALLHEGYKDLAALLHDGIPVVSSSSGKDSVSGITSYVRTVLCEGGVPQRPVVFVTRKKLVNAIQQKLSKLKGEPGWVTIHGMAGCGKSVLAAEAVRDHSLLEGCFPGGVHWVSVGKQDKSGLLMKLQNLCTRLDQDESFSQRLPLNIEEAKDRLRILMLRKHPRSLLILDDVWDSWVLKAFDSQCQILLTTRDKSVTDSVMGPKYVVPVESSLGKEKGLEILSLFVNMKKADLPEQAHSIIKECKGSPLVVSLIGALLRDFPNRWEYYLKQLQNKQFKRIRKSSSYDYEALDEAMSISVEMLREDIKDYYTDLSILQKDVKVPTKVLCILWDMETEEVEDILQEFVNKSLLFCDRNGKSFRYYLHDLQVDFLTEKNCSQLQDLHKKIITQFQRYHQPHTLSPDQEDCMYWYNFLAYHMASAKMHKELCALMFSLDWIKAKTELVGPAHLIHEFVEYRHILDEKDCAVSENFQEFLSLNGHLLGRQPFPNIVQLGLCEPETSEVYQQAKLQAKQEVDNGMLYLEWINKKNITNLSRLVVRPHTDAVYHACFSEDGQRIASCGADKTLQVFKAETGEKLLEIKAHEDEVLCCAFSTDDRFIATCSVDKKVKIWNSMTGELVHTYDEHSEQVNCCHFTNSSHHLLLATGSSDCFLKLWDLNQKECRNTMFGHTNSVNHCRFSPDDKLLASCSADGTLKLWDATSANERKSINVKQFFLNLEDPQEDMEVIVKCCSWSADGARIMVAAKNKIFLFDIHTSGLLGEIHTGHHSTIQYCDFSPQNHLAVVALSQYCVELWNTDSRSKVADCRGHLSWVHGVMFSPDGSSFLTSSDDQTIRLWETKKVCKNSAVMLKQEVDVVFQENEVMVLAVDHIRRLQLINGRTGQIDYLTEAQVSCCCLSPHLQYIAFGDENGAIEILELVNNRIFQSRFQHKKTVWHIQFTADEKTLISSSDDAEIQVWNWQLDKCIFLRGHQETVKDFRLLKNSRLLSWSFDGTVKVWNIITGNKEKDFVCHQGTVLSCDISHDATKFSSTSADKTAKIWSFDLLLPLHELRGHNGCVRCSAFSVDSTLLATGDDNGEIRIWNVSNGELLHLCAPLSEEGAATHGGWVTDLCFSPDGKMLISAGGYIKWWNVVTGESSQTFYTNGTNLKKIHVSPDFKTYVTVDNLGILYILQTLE
The class given is functional.

The target of assay [3] is High affinity nerve growth factor receptor (Homo sapiens, UniProt P04629). Format: functional.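 Also: NTRK1 tested as one member of a kinome-wide profiling panel.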
Assay [4] has as its target Fibroblast growth factor receptor 1 (Homo sapiens, UniProt P11362). The class given is functional.
The target of assay [5] is Serine/threonine-protein kinase TAO1 (Homo sapiens, UniProt Q7L7X3). The class given is functional.
In assay [6] the target is Mitogen-activated protein kinase kinase kinase kinase 4 (Homo sapiens, UniProt O95819). The class given is functional.
Assay [7] deals with Glycogen synthase kinase-3 alpha (Homo sapiens, UniProt P49840). Format: functional.
In assay [8] the target is 5'-AMP-activated protein kinase catalytic subunit alpha-1 (Homo sapiens, UniProt Q13131). Format: functional.
Assay [9] addresses Tyrosine-protein kinase JAK3 (Homo sapiens, UniProt P52333). The class given is functional.
The target in assay [10] is T2, Sentrin-specific protease 8 (Homo sapiens, UniProt Q96LD8).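 Also: luminescence read-out of SENP8 inhibition, dose-response confirmation following an ultra-high-throughput screen.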
T2 sequence (Q96LD8 whole entry): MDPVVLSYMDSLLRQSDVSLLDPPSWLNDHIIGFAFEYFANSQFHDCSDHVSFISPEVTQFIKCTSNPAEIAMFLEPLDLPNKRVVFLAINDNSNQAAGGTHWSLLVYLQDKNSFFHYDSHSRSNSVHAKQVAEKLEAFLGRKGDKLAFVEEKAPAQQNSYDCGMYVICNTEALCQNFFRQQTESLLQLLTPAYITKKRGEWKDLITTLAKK
Format: functional.

For assay [11], the target named is T3, Sentrin-specific protease 6 (Homo sapiens, UniProt Q9GZR1).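 Also: Luminescence-based dose-response confirmatory assay of SENP6 inhibition, following up an ultra-high-throughput screen.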
T3 sequence (Q9GZR1 whole entry): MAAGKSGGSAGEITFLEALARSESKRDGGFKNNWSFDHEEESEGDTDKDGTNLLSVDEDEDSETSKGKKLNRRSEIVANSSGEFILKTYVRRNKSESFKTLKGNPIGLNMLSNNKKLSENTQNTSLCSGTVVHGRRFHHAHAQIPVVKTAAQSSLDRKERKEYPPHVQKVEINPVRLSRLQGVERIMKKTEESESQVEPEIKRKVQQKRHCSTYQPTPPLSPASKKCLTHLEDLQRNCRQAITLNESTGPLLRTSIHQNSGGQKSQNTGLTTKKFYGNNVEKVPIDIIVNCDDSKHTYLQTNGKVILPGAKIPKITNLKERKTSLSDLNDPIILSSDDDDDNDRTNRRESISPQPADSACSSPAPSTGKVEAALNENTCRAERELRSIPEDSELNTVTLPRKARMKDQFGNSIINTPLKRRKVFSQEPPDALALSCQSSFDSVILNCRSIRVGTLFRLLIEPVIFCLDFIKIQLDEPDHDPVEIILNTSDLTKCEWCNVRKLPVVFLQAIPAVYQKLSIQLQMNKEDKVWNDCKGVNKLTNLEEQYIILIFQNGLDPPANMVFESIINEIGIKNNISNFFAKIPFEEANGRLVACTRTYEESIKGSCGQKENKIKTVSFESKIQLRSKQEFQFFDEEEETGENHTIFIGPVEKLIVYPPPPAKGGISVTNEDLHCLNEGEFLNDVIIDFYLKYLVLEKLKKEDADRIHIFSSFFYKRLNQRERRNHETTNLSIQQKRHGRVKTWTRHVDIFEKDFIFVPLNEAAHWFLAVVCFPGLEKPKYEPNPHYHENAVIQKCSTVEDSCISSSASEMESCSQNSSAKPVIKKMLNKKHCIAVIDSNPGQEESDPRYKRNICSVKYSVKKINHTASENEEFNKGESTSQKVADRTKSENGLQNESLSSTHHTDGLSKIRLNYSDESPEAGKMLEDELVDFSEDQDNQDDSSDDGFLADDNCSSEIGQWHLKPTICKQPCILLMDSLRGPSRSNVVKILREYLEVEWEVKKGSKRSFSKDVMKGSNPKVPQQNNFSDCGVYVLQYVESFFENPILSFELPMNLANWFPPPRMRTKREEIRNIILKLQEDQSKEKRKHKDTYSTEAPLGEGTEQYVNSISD
The class given is functional.

Chain of 5'-AMP-activated protein kinase catalytic subunit alpha-1 (Q13131 whole entry): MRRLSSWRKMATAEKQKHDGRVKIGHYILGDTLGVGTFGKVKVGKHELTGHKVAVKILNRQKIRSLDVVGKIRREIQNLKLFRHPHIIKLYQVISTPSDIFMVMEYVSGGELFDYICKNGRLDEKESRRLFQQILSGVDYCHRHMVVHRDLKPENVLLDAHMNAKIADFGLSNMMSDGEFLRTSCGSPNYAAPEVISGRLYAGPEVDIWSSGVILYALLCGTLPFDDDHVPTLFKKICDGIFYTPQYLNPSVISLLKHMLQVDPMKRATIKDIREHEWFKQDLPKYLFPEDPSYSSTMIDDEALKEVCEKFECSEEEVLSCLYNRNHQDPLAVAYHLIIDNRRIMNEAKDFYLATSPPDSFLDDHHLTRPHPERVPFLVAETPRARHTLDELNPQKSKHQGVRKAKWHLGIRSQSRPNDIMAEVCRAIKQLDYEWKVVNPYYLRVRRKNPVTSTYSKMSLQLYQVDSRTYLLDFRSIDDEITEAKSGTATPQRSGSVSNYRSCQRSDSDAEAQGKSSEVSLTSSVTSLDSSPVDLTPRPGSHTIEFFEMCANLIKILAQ
Chain of Glycogen synthase kinase-3 alpha (P49840 whole entry): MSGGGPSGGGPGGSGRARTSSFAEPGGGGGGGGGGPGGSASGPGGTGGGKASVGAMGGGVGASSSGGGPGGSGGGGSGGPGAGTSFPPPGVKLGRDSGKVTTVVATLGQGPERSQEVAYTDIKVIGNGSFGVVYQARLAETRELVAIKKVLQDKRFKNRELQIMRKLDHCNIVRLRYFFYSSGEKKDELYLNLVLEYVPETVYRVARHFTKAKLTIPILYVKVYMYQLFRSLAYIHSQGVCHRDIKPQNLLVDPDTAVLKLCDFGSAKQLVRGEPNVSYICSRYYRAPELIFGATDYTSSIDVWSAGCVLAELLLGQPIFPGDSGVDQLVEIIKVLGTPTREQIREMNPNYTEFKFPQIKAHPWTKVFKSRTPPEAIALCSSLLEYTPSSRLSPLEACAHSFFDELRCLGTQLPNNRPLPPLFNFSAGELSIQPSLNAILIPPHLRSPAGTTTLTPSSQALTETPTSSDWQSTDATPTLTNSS
Chain of Tyrosine-protein kinase JAK3 (P52333 whole entry): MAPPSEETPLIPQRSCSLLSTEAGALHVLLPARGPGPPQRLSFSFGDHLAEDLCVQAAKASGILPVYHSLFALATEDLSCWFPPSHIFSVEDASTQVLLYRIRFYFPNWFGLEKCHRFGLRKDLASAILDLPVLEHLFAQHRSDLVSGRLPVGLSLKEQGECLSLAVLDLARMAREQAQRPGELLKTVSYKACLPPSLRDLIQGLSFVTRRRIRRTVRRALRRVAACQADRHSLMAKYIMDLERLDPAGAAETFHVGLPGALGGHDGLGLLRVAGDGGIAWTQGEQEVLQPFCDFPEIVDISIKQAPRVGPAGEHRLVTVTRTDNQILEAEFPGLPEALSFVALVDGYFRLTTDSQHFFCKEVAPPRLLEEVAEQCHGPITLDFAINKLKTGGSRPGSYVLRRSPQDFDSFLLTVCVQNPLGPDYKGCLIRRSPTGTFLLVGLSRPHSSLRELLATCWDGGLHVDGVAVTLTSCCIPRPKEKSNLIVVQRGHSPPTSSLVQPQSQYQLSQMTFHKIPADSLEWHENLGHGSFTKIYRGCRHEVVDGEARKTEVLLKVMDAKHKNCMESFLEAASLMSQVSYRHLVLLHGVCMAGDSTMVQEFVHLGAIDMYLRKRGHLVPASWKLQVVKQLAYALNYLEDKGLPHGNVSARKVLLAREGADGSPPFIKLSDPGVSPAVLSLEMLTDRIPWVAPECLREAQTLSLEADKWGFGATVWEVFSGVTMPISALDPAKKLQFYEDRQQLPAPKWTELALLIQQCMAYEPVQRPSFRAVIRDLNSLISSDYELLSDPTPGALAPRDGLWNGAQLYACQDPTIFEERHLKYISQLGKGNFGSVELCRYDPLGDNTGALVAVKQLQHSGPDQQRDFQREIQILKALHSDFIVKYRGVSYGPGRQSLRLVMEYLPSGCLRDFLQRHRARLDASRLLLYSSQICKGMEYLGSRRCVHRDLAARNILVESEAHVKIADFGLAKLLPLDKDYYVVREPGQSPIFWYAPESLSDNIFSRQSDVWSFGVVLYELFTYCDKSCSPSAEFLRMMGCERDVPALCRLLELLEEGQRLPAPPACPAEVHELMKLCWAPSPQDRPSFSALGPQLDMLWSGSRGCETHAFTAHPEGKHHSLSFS
Chain of Serine/threonine-protein kinase TAO1 (Q7L7X3 whole entry): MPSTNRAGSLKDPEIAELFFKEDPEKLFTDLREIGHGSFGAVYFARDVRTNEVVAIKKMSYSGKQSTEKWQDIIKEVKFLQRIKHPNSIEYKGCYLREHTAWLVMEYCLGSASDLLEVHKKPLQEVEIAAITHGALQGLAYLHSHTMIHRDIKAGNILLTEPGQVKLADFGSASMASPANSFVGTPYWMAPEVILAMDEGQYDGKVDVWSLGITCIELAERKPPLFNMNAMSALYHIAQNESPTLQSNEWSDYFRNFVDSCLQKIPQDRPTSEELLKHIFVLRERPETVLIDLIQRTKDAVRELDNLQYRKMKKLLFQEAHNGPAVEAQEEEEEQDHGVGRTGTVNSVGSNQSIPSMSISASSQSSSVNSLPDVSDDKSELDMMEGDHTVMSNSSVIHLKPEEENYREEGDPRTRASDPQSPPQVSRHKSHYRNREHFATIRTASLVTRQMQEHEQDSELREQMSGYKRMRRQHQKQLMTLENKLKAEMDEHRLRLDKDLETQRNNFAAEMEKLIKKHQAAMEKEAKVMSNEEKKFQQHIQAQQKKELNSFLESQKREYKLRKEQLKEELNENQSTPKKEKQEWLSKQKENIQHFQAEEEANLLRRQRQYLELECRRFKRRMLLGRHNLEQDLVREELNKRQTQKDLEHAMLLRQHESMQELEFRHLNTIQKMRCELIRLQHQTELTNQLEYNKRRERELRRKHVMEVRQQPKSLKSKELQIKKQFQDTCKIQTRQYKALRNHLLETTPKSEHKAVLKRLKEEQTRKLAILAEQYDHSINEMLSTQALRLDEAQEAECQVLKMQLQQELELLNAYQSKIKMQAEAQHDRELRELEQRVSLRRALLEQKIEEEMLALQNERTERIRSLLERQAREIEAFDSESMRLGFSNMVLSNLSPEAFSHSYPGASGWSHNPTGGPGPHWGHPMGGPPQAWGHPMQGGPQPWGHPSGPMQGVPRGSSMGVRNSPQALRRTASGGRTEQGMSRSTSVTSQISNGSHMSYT
Chain of Mitogen-activated protein kinase kinase kinase kinase 4 (O95819 whole entry): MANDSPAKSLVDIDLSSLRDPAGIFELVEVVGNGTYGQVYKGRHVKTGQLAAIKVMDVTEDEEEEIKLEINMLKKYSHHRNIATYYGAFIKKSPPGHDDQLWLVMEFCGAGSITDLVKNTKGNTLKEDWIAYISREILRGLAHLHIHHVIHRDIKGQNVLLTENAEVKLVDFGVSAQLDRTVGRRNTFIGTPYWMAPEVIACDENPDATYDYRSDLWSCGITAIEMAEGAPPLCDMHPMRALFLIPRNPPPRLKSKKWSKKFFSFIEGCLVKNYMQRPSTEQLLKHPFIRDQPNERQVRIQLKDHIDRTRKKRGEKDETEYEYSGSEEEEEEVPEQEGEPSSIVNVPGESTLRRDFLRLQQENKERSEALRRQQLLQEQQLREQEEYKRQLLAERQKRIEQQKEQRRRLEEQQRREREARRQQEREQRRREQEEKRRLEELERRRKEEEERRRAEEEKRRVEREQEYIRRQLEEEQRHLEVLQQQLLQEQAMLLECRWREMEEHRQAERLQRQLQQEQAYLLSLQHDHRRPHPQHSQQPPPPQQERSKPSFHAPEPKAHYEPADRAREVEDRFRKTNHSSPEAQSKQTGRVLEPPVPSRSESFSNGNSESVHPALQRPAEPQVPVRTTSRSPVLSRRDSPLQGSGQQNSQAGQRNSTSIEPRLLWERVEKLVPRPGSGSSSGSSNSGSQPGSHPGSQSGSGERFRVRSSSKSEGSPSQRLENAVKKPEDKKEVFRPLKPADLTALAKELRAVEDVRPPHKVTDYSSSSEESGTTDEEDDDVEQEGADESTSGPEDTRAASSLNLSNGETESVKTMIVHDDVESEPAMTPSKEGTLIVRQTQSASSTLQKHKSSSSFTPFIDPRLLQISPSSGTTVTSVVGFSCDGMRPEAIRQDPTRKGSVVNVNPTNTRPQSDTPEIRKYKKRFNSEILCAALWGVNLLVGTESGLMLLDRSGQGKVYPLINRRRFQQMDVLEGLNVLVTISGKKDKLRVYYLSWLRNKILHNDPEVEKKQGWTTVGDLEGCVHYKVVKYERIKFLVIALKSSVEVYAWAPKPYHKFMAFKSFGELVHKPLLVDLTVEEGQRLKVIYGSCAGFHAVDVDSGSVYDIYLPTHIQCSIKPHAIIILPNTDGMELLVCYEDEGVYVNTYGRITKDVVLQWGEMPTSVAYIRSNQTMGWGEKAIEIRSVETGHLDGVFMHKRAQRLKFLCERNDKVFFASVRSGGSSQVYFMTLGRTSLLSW

Usually EC50 stands for the concentration needed to bring the measured effect to its halfway point. What is called IC50 is the point on the concentration scale where inhibition reaches its midpoint. Regarding `CCCCCCCCCCC[N+](C)(C)CC/C=C1/c2ccccc2Sc2ccc(Cl)cc21`, the concentration for a half-maximal effect (EC50) in [1] was 7.23 µM (active). Moreover, the half-inhibitory concentration (IC50) in assay [2] was 11.6 µM (active).

By Ki is commonly meant the dissociation constant of the complex between target and ligand, obtained from inhibition or displacement. In the case of `CCn1c(-c2nonc2N)nc2cncc(C(=O)N3CCC(N)C3)c21` (configuration not stated), the Ki in assay [3] was > 3.16 µM (inactive); in [4] it was > 3.98 µM (inactive); in assay [5] it was > 6.31 µM (inactive); in [6], > 3.16 µM (inactive); in assay [7], 0.398 µM (active); in assay [8], > 3.16 µM (inactive). Moreover, the Ki in assay [9] was > 5.01 µM (inactive).

As to `Cc1[nH]nc2ccc(-c3cncc(OCC(N)Cc4c[nH]c5ccccc45)c3)cc12` (configuration not stated), the Ki in [3] was > 2.51 µM (inactive); in assay [4] it was 3.16 µM (active); in assay [5], > 10 µM (inactive); in assay [6] it was 0.0501 µM (active); in [7] it was 0.126 µM (active); in [8] it was 0.158 µM (active). In addition, in [9], the Ki is 0.316 µM (active).

Consider `COC(=O)c1ccccc1NC1=C/C(=N\S(=O)(=O)c2cccs2)c2ccccc2C1=O`, for which the half-maximal inhibitory concentration (IC50) is 1.82 µM (active) in [2], 41.2 µM (active) in assay [10] and 1.86 µM (active) in assay [11].

For the compound `Cc1cc(C)c[n+](C2=C([N-]S(=O)(=O)c3cccs3)C(=O)c3ccccc3C2=O)c1`, the EC50 in assay [1] is 9.57 µM (active). For the same compound, the concentration for half-maximal inhibition (IC50) in assay [10] is 33.4 µM (active); in assay [11] it was 15.1 µM (active).
